# Results from US9540428B2, “Extracellular matrix heparin-binding domains” (EPFL-TTO, priority 2012, dated 2017).
# T1: binding of TNC III1-5 to the cytokines (Homo sapiens, UniProt P24821)
# T1 construct: factor Xa cleavage site (N); made in house; host or cells: HEK-293E
# T1 sequence (P24821 622-1074): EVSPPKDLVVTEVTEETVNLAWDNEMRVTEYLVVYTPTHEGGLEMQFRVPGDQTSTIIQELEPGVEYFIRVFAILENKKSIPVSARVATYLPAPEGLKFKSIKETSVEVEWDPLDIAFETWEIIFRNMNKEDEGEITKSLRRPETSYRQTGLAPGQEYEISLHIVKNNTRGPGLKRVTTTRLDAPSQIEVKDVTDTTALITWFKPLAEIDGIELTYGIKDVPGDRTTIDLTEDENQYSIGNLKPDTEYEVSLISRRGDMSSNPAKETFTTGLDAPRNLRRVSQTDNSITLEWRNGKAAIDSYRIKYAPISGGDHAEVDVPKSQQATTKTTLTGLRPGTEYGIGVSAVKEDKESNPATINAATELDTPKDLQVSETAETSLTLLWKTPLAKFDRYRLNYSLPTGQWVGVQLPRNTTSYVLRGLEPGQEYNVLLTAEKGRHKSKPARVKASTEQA
# Key:
# SMC = experiment: Smooth muscle cell proliferation on modified TG-PEG gels with PDGF-BB; assay type: cell-based
# Method: Method: Three different gels were fabricated, unmodified PEG, and PEG gels modified with TNC III1-5 or FN III9*-10,TNC III1-5 (5 μM). Unbound fragment was washed from the gels. Sequentially, gels were incubated for 1 hour at 37° C. with 100 μL DMEM without PDGF-BB or with PDGF-BB (1 ng per gel). For one set of gels, the media containing PDGF-BB was removed and gels were washed for 1 hour at RT. Cells were added to each gel and a proliferation assay with Alamar Blue was performed at 72 hours.
# [1] = target: T1, binding of TNC III1-5 to the cytokines; experiment: Competition ELISA: TNC III1-5 binding to cytokines with gradient of full length tenascin or heparin; details: high concentrations of competitor; 10 nM TNC III1-5
# Method: ELISA plates were coated with cytokines or BSA and further incubated with TNC III1-5 in the presence of a gradient of full length tenascin or heparin to verify the specificity of the binding. […] TNC bound to the cytokines, making them unavailable for TNC III1-5, while heparin bound to TNC III1-5, blocking it to bind to the cytokines. Method: 50 nM of cytokine was coated for (1 hr, 37° C.). After blocking with 2% BSA (1 hr, RT). 10 nM TNC III1-5 was applied in PBST (0.05% tween, 0.1% bovine serum albumin (BSA)) (1 hr, RT) in the presence of a gradient of full length tenascin (0, 0.2, 0.6, 1.9, 5.6, 17, 50 nM) or heparin (0.01, 0.64, 3.2, 16, 80, 400, 2000, 10000). TNC III1-5 was detected with HRP-anti-HIS in PBST (1 hr, RT) and developed with TMB. Background values were obtained by applying each tenascin (0, 0.2, 0.6, 1.9, 5.6, 17, 50 nM) or heparin (0.01, 0.64, 3.2, 16, 80, 400, 2000, 10000) concentration to the cytokine without TNC III1-5, and were subtracted as normalization.
# To verify specific binding of tenascin to the cytokines, tenascin (0, 0.1, 0.2, 0.6, 1.9, 5.6, 17, 50 nM) was incubated with PDGF-BB (50 nM) and BSA and detected with mouse anti-tenascin, HRP-anti-mouse, and TMB.
# HUVEC cells = experiment: HUVEC proliferation with cytokines with or without fibrinogen or Fg β15-66; assay type: cell-based, human; details: 72 hours; ≧100-fold molar excess; VEGF-A165, PlGF-2, FGF-2
# Method: To verify that cytokines bound to Fg β15-66 are still bioactive, the proliferation of HUVEC cells was tested for different cytokines with and without the presence of Fg β15-66. Method: HUVEC cells were stimulated with various cytokines: VEGF-A165, PlGF-2, and FGF-2 with or without fibrinogen or Fg β15-66 in excess (≧100-fold molar excess).
# [2] = target: T2, binding of TNC III1-5 to cytokines (Homo sapiens, UniProt P24821); experiment: ELISA binding of TNC III1-5 to cytokines in presence of 4 μM heparin; details: heparin 4 μM; 100 nM TNC III1-5
# T2 construct: factor Xa cleavage site (N); made in house; host or cells: HEK-293E
# Method: ELISA plates were coated with cytokines or BSA and further incubated with TNC III1-5 to analyze binding of TNC III1-5 to a wide variety of cytokines. […] Results are depicted in FIG. 3. Method: 50 nM of cytokine was coated for (1 hr, 37° C.). After blocking with 2% BSA (1 hr, RT). 100 nM TNC III1-5 was applied in PBST (0.05% tween, 0.1% bovine serum albumin (BSA)) (1 hr, RT). TNC III1-5 was detected with horseradish peroxidase (HRP)-anti-HIS in PBST (1 hr, RT) and developed with 3,3′,5,5′-tetramethylbenzidine (TMB), a soluble colorimetric HRP […]. Addition of sulfuric acid stop solution changes the color to yellow, enabling accurate measurement of the intensity at 450 nm using a spectrophotometer or plate reader. […] Heparin (4 μM) was added to TNC III1-5 to test the effect of blocking the heparin binding site of TNC III1-5, which has been defined as domain TNC III5 (Weber, Zimmermann, et al., 1995).
# PDGF-BB = PDGF-BB (Homo sapiens, UniProt P01127); experiment: ELISA of individual TNC domains binding PDGF-BB
# Method: An ELISA was performed to test the affinity of different domains present in TNC1-5 to PDGF-BB as an example cytokine that has shown to bind TNC III1-5. […] Method: ELISA plates were coated with individual TNC domains fused to GST, as well as GST and BSA. Wells were blocked with BSA and then incubated with 2 nM PDGF-BB. Binding of PDGF-BB was detected using an anti-PDGF-BB antibody and then a secondary horseradish peroxidase conjugated antibody.
# skin wounds = details: applied topically for five consecutive days; 20 μg/wound VEGF-A165 or 10 μg/wound PDGF-BB; cited from earlier work
molecule,measurement,setting,value
"FN III9*-10-TNC III1-5: fusion protein of fibronectin integrin binding domain FN III9*-10 and TNC III1-5 with TG substrate, SEQ ID NO:5","SMC proliferation on top of a PEG gel, fusion vs TNC III1-5",SMC; addition of FN III9*-10 to TNC III1-5,significantly enhanced SMC proliferation
same,SMC proliferation on TG-PEG gels (2%),"SMC; in the presence of PDGF-BB, 5 μM fragment, 72 hours",enhanced SMC proliferation
"TNC: full length tenascin C, extracellular matrix glycoprotein, used as competitor",competition of binding of TNC III1-5 to the cytokines,[1],competed away binding
fibrinogen [reference compound],"synergistic effect on HUVEC proliferation, cytokines plus protein vs cytokines alone",HUVEC cells,no synergistic effect
heparin,competition of binding of TNC III1-5 to the cytokines,[1],competed away binding
same,effect on binding of TNC III1-5 to cytokines,[2],impaired binding
"TNC III5: fifth fibronectin type III domain of tenascin C, heparin-binding; tested as GST fusion (protein, left off: a dimerising Fc or GST, tested as GST fusion) LQVSETAETSLTLLWKTPLAKFDRYRLNYSLPTGQWVGVQLPRNTTSYVLRGLEPGQEYNVLLTAEKGRHKSKPARVKASTEQA",domain responsible for binding of PDGF-BB,"PDGF-BB; GST-fused TNC domains coated, 2 nM PDGF-BB",responsible for cytokine binding
"VEGF-A165: vascular endothelial growth factor, cytokine applied topically (protein) APMAEGGGQNHHEVVKFMDVYQRSYCHPIETLVDIFQEYPDEIEYIFKPSCVPLMRCGGCCNDEGLECVPTEESNITMQIMRIKPHQGQHIGEMSFLQHNKCECRPKKDRARQENPCGPCSERRKHLFVQDPQTCKCSCKNTDSRCKARQLELNERTCRCDKPRR",efficacy in the db/db mouse,skin wounds,efficient
TNC III4-5: fibronectin type III domains 4-5 of tenascin C (protein) APRNLRRVSQTDNSITLEWRNGKAAIDSYRIKYAPISGGDHAEVDVPKSQQATTKTTLTGLRPGTEYGIGVSAVKEDKESNPATINAATELDTPKDLQVSETAETSLTLLWKTPLAKFDRYRLNYSLPTGQWVGVQLPRNTTSYVLRGLEPGQEYNVLLTAEKGRHKSKPARVKASTEQA,cytokine-binding,PDGF-BB; test not specified,demonstrated cytokine-binding
PDGF-BB: platelet derived growth factor BB (REGRANEx®) applied topically (protein) SLGSLTIAEPAMIAECKTRTEVFEISRRLIDRTNANFLVWPPCVEVQRCSGCCNNRNVQCRPTQVQLRPVQVRKIEIVRKKPIFKKATVTLEDHLACKCETVAAARPVT,efficacy in the db/db mouse,skin wounds,efficient
